Experimental data taken from ChEMBL document CHEMBL1681667, “Structure-activity relationship studies of sphingosine-1-phosphate receptor agonists with N-cinnamyl-β-alanine moiety” (Bioorg Med Chem Lett, 2011).
pEC50: −log10 of the molar value.

Columns and labels:
[1] = target: Sphingosine 1-phosphate receptor 1 (Homo sapiens, UniProt P21453); assay: Agonist activity at human S1P1 receptor expressed in CHO cells assessed as intracellular calcium levels; type: functional, cell-based
[2] = target: Sphingosine 1-phosphate receptor 2 (Homo sapiens, UniProt O95136); assay: Agonist activity at human S1P2 receptor expressed in CHO cells assessed as intracellular calcium levels; type: functional, cell-based
Sphingosine 1-phosphate receptor 2, sequence (O95136 whole entry): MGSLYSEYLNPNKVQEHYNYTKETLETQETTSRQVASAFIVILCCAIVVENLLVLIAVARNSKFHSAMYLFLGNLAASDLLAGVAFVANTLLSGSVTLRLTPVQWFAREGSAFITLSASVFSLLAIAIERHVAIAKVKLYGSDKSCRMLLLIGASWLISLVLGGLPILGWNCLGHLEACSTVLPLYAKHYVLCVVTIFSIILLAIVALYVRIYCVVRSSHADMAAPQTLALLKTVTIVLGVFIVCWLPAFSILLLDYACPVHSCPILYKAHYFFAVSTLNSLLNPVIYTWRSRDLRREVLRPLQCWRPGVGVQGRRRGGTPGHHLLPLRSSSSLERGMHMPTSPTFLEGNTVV

[3] = target: Sphingosine 1-phosphate receptor 3 (Homo sapiens, UniProt Q99500); assay: Agonist activity at human S1P3 receptor expressed in CHO cells assessed as intracellular calcium levels; type: functional, cell-based
Sphingosine 1-phosphate receptor 3, sequence (Q99500 whole entry): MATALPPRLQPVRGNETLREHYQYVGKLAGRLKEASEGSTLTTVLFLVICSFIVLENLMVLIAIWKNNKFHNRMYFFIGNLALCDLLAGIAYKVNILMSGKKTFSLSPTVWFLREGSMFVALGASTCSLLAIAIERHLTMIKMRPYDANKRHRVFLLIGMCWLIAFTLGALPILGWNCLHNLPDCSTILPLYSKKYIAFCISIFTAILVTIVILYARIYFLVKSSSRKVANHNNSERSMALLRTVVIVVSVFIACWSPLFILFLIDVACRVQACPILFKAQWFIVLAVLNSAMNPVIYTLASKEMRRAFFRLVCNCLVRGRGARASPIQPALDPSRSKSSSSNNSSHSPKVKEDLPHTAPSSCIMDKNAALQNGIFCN

[4] = target: Sphingosine 1-phosphate receptor 5 (Homo sapiens, UniProt Q9H228); assay: Agonist activity at human S1P5 receptor expressed in CHO cells assessed as intracellular calcium levels; type: functional, cell-based
Sphingosine 1-phosphate receptor 5, sequence (Q9H228 whole entry): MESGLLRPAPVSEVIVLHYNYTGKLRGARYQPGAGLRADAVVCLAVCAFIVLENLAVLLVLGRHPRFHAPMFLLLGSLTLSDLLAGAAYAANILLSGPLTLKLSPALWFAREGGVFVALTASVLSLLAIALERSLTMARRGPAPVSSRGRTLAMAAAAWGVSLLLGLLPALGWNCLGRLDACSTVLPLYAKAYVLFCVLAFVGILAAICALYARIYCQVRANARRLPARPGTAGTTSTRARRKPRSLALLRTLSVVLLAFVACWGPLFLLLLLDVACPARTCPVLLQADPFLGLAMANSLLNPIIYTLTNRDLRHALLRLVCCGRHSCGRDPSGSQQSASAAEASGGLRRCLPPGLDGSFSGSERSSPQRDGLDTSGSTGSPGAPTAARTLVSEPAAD

Mus musculus = assay: Immunomodulatory activity in po dosed mouse assessed as peripheral blood lymphocyte lowering activity after 4 hrs; type: functional
[5] = AUC (infinity) in rat at 30 mg/kg, po; type: ADME, organism-based; parameters: time infinity, dose 30 mg/kg, route oral; conditions: plasma
[6] = Cmax in rat at 30 mg/kg, po; type: ADME, organism-based; parameters: dose 30 mg/kg, route oral; conditions: in vivo
[7] = Half life in rat at 30 mg/kg, po; type: ADME, organism-based; parameters: dose 30 mg/kg, route oral; conditions: in vivo

Sphingosine 1-phosphate receptor 1, sequence (P21453 whole entry): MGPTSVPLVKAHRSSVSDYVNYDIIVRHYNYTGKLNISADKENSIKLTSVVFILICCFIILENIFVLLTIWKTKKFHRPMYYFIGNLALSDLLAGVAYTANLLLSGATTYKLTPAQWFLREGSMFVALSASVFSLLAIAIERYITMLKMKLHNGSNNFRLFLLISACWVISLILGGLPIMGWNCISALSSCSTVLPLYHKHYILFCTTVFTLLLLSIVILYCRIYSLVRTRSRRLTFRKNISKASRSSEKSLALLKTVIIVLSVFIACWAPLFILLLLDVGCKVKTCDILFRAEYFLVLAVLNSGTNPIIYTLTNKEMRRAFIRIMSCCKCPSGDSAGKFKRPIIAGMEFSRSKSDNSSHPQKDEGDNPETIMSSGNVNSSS

| Structure (SMILES) | pEC50 [1] | pEC50 [2] | pEC50 [3] | pEC50 [4] | AUC(0-inf) [5] [µg·h/mL] | Cmax [6] [ng/mL] | half-life [7] [h] | ED50 (Mus musculus) [mg/kg] |
| --- | --- | --- | --- | --- | --- | --- | --- | --- |
| O=C(O)CCNCCCc1ccc(OCCCc2ccccc2)cc1 | 5.59 | – | 5.05 | – | 174 | 28000 | 3.8 | – |
| O=C(O)CCNCCCc1ccc(OCCCCc2ccccc2)cc1 | 5.82 | – | < 5.00 | – | – | – | – | – |
| O=C(O)CCNCCCc1ccc(OCCCCCCc2ccccc2)cc1 | 5.57 | – | < 5.00 | – | – | – | – | – |
| O=C(O)CCN1CC=C(c2ccc(OCCCc3ccccc3)cc2)CC1 | 7.35 | – | 5.92 | – | – | – | – | 1.4 |
| O=C(O)CCN1CCC(c2ccc(OCCCc3ccccc3)cc2)CC1 | 5.80 | – | < 5.00 | – | – | – | – | – |
| O=C(O)CCN1CCC/C(=C\c2ccc(OCCCc3ccccc3)cc2)C1 | 5.82 | – | < 5.00 | – | – | – | – | – |

More lines, in order of rising pEC50 [1], values ahead:

| pEC50 [1] | pEC50 [2] | pEC50 [3] | pEC50 [4] | AUC(0-inf) [5] [µg·h/mL] | Cmax [6] [ng/mL] | half-life [7] [h] | Structure (SMILES) | ED50 (Mus musculus) [mg/kg] |
| --- | --- | --- | --- | --- | --- | --- | --- | --- |
| 6.03 | – | < 5.00 | – | – | – | – | C/C(=C/CNCCC(=O)O)c1ccc(OCCCc2ccccc2)cc1 | – |
| 6.80 | < 5.00 | 5.38 | 6.77 | – | – | – | O=C(O)CCNCCCc1ccc(OCCCCCc2ccccc2)cc1 | 26 |
| 7.15 | – | 5.48 | – | – | – | – | O=C(O)CCNC/C=C/c1ccc(OCCCc2ccccc2)cc1 | 4.6 |
| 7.48 | – | 5.72 | – | – | – | – | C/C(=C\c1ccc(OCCCc2ccccc2)cc1)CNCCC(=O)O | – |
| 7.68 | – | < 5.00 | – | – | – | 7.4 | C/C(=C\CNCCC(=O)O)c1ccc(OCCCc2ccccc2)cc1 | 0.69 |
